Legend:
MDR1 = experiment: MDCK-MDR1 permeability assay; assay type: in vitro ADME; conditions: dog, MDCK-MDR1, MDCK-MDR1 cells; for efflux ratio at 2 h, 3 μM: Papp B→A divided by Papp A→B, read-out: Efflux ratio (ER); for Papp A→B at 2 h, 3 μM: test compound 3 μM, 2 hours at 37 degrees C, apical to basolateral
In short: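 Receiver and donor compartments were analysed by LC-MS/MS after a 2 h incubation at 37 °C of 3 μM compound in HBSS on MDCK-MDR1 monolayers, run in both directions with Lucifer Yellow (100 μM) as integrity marker. Apparent permeability came from translocation rate, insert area and initial concentration; B→A/A→B Papp gave the efflux ratio, alongside percent recovery.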

[1] = Hepatocytes stability assay (human hepatocytes); assay type: in vitro ADME; conditions: both sexes, human, cryopreserved hepatocytes, cryopreserved human hepatocytes (pool of 50 mixed gender); 1 μM test compound; 1×10^6 cell/mL; 37 degrees C; read-out: CLint (μL/min/million cells)
In short: (§1)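 Compound at 1 μM (0.1% DMSO) was incubated with cryopreserved pooled human hepatocytes, 1×10^6 cells/mL in Krebs-Henseleit buffer, at 37 °C, sampled up to 240 min. Parent depletion by LC-MS/MS; half-life from first-order decay gave CLint, scaled to hepatic clearance by well-stirred model (fu assumed 1) and extraction ratio.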

human hepatocytes = experiment: Hepatocytes stability assay (human hepatocytes); assay type: in vitro ADME; conditions: human hepatocytes; scaled hepatic clearance divided by liver blood flow (well-stirred model, fu assumed unity)
In short: as §1

Sprague-Dawley rats = experiment: Assessment of wake promotion in Sprague-Dawley rats (EEG/EMG); assay type: in vivo, rat; conditions: male Sprague-Dawley rats; PO; 3 mpk; dosed at ZT5; 6-hour post-dose period
Experimental: Wake promotion was assessed using electroencephalography (EEG) and electromyography (EMG) in adult male Sprague-Dawley rats. All rats (Charles River Laboratories, Raleigh, NC, USA) were intraperitoneally implanted with telemetry devices (F50-EEE, Data Sciences International Inc., MN, USA) under isoflurane anesthesia. For EEG, stainless steel screws were implanted over frontal cortex and parietal cortex, and reference screws were placed over cerebellum. Additionally, an electrode was placed in neck muscle for EMG. Rats were given carprofen post-surgery and underwent a 7 to 10-day recovery period. Rats habituated to the experimental room for 7 days and were maintained on a 12-hour light-dark cycle.
EEG and EMG data were recorded using the DSI telemetry system and Ponemah software (Data Sciences International Inc., MN, USA). Sleep-wake stages were scored both manually and with Somnivore, a supervised machine learning software platform, in 10 second epochs. Records were visually inspected as needed post-processing.
All test compounds were dissolved in 5% DMSO and suspended in 95% saline with 0.5% methylcellulose and 0.5% tween. […] Unless otherwise indicated, all compounds were dosed orally. Recordings for each rat were initiated immediately after dosing and lasted for 6 hours post-dose.
Two key endpoints include wakefulness time and cortical activation time. Wakefulness time is derived from the sleep-wake stage analysis. Cortical activation time is based on the duration in which frontal gamma oscillatory activity (30-100 Hz), a key feature of wakefulness, was elevated relative to a pre-treatment baseline. Mean cortical activation time was computed relative to vehicle treatment for the 6-hour post-dose period.

[2] = target: T1, human orexin-2 receptor (OX2R) (Homo sapiens, UniProt O43614); experiment: Human OX2R IP1 assay; assay type: cell-based; conditions: T-Rex CHO cells stably overexpressing human OX2R; IP1 accumulation; 1 hr at 37 degrees C; mean EC50
T1 construct: expressed in transfected cells
T1 sequence (O43614 1-444): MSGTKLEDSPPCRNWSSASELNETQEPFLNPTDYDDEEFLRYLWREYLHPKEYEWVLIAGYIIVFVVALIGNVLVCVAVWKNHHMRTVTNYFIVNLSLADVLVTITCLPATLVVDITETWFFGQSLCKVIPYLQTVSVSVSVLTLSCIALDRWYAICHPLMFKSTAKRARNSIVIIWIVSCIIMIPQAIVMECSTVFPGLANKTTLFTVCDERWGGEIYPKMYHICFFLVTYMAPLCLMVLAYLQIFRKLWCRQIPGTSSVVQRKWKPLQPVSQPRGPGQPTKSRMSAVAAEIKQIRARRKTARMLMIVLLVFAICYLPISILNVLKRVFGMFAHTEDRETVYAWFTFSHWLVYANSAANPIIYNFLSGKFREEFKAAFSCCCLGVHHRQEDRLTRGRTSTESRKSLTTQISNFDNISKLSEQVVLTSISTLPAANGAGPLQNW
In short: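 T-Rex CHO cells stably expressing human OX2R, doxycycline-induced (1 μg/mL) overnight, treated with compounds 1 h at 37 °C in pH 7.4 buffer with 50 mM LiCl. IP1 accumulation read by HTRF competitive immunoassay after 1 h at room temperature; agonist EC50 reported as mean ± S.E.M.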

SMILES	efflux ratio at 2 h, 3 μM (MDR1)	Papp A→B at 2 h, 3 μM (MDR1) [×10⁻⁶ cm/s]	hepatocyte CLint at 1 μM [1] [µL/min/1e6 cells]	Extraction Ratio (ER) (human hepatocytes)	EC50 [2] [nM]	Mean cortical activation time (% vehicle treatment) (Sprague-Dawley rats)
Cc1cccc2c1C1CCC(CC1)OC[C@H]1[C@@H](NS(C)(=O)=O)CCCN1C(=O)CO2 (stereo in doubt) [Compound 2]	46	0.69	28	0.80	–	182.50
Cc1ccnc2c1C1CCC(CC1)OC[C@H]1[C@@H](NS(=O)(=O)C(C)C)CCCN1C(=O)CO2 (stereo in doubt) [Compound 10]	> 100	0.38	9.4	0.58	–	82.61
Cc1ccnc2c1C1CCC(CC1)OC[C@H]1[C@@H](NS(C)(=O)=O)CCCN1C(=O)CO2 (stereo in doubt) [Compound 12]	74	0.49	9.7	0.59	–	108.70
CC(C)S(=O)(=O)N[C@H]1CCCN2C(=O)COc3ncccc3C3CCC(CC3)OC[C@@H]12 (stereo in doubt) [Compound 15]	100	0.34	15	0.69	–	107.59
Cc1ccc2c(c1)C1CCC(CC1)OC[C@H]1[C@@H](NS(C)(=O)=O)CCCN1C(=O)CO2 (stereo in doubt) [Compound 17]	40	0.84	7.5	0.53	–	212.31
CS(=O)(=O)N[C@H]1CCCN2C(=O)COc3ccccc3[C@H]3CC[C@@H](OCC12)[C@H](O)C3 (stereo in doubt) [Compound 45]	> 5.3	< 0.14	< 1.9	<0.22	10 to 1000	–
O=C1COc2nccnc2[C@H]2CC[C@H](CC2)OCC2[C@@H](NS(=O)(=O)C3CC3)CCCN12 (stereo in doubt) [Compound 65]	> 100	0.1	< 1.9	<0.22	–	121.28
CC(C)S(=O)(=O)N[C@H]1CCCN2C(=O)COc3nccnc3[C@H]3CC[C@H](CC3)OCC12 (stereo in doubt) [Compound 66]	88	0.22	< 1.9	<0.22	–	141.30
Cc1ncnc2c1[C@H]1CC[C@H](CC1)OCC1[C@@H](NS(=O)(=O)C3CC3)CCCN1C(=O)CO2 (stereo in doubt) [Compound 68]	72	0.24	3.9	0.37	–	157.14
Cc1ccnc2c1[C@H]1CC[C@H](CC1)OCC1[C@@H](NS(=O)(=O)C3CCOC3)CCCN1C(=O)CO2 (stereo in doubt) [Compound 89]	49	0.56	12	0.64	< 10	–
Cc1ccnc2c1[C@H]1CC[C@H](CC1)OCC1[C@@H](NS(=O)(=O)C3CC3)CCN1C(=O)CO2 (stereo in doubt) [Compound 92]	18	3.4	24	0.78	–	97.94
Cc1ccnc2c1[C@H]1CC[C@H](CC1)OCC1[C@@H](NS(=O)(=O)C(C)C)CCN1C(=O)CO2 (stereo in doubt) [Compound 93]	11	4.7	20	0.75	–	138.14

The next lines start with results.

efflux ratio at 2 h, 3 μM (MDR1)	Papp A→B at 2 h, 3 μM (MDR1) [×10⁻⁶ cm/s]	hepatocyte CLint at 1 μM [1] [µL/min/1e6 cells]	Extraction Ratio (ER) (human hepatocytes)	EC50 [2] [nM]	SMILES	Mean cortical activation time (% vehicle treatment) (Sprague-Dawley rats)
6.7	1.6	31	0.82	–	O=C1COc2ccccc2C2CCC(CC2)OC[C@H]2[C@@H](NS(=O)(=O)C3CC3)CCCN12 (stereo in doubt) [Compound 1]	160.00
10	1.8	21	0.76	–	CC(C)S(=O)(=O)N[C@H]1CCCN2C(=O)COc3ccccc3C3CCC(CC3)OC[C@@H]12 (stereo in doubt) [Compound 3]	204.79
52	1.6	4.2	0.38	–	O=C1COc2ccccc2C2CCC(CC2)OC[C@H]2[C@@H](NS(=O)(=O)C(F)(F)F)CCCN12 (stereo in doubt) [Compound 11]	411.43
> 100	0.041	3.7	0.36	< 10	CS(=O)(=O)N[C@H]1CCCN2C(=O)[C@@H](CO)Oc3ccccc3[C@H]3CC[C@H](CC3)OCC12 (stereo in doubt) [Compound 60]	–
> 100	< 0.034	6.9	0.51	< 10	CS(=O)(=O)N[C@H]1CCCN2C(=O)[C@H](CO)Oc3ccccc3[C@H]3CC[C@H](CC3)OCC12 (stereo in doubt) [Compound 61]	–
100	0.43	31	0.82	< 10	CC[C@@H]1Oc2ccccc2[C@H]2CC[C@H](CC2)OCC2[C@@H](NS(C)(=O)=O)CCCN2C1=O (stereo in doubt) [Compound 84]	–
97	0.45	37	0.84	< 10	CC[C@H]1Oc2ccccc2[C@H]2CC[C@H](CC2)OCC2[C@@H](NS(C)(=O)=O)CCCN2C1=O (stereo in doubt) [Compound 85]	–
9.2	0.53	2.3	0.25	–	CS(=O)(=O)N[C@H]1CCCN2C(=O)COc3ccc(O)cc3[C@H]3CC[C@H](CC3)OCC12 (stereo in doubt) [Compound 96]	74.48
28	1.4	41	0.86	10 to 1000	C[C@@H]1C[C@H](NS(C)(=O)=O)[C@@H]2CO[C@H]3CC[C@H](CC3)c3ccccc3OCC(=O)N12 [Compound 103]	–
